Test results reported in the CheMixHub viscosity set.

Experiment: xn = mol fraction of the nth substance listed

O=S(=O)([O-])[O-].O=S(=O)([O-])[O-].O=S(=O)([O-])[O-].[Fe+3].[Fe+3] + O
323.15 K, 101.3 kPa
Conditions | viscosity [mPa·s]
x1 = 0.0012 | 0.617
x1 = 0.0024 | 0.645
x1 = 0.00498 | 0.768
x1 = 0.00789 | 0.982
x1 = 0.0111 | 1.275

O=S(=O)([O-])[O-].[Ni+2] + O
viscosity [mPa·s], 101 kPa
Conditions | x1 = 0.00332 | x1 = 0.0106 | x1 = 0.01799 | x1 = 0.02625 | x1 = 0.0309 | x1 = 0.04249
298.15 K | 1.04 | 1.32 | 1.82 | 2.66 | 3.13 | 5.21
313.15 K | 0.762 | 0.934 | 1.283 | 1.83 | 2.145 | 3.462

OC[C@H]1O[C@@H]2O[C@H]3[C@H](O)[C@@H](O)[C@@H](O[C@H]4[C@H](O)[C@@H](O)[C@@H](O[C@H]5[C@H](O)[C@@H](O)[C@@H](O[C@H]6[C@H](O)[C@@H](O)[C@@H](O[C@H]7[C@H](O)[C@@H](O)[C@@H](O[C@H]8[C@H](O)[C@@H](O)[C@@H](O[C@H]1[C@H](O)[C@H]2O)O[C@@H]8CO)O[C@@H]7CO)O[C@@H]6CO)O[C@@H]5CO)O[C@@H]4CO)O[C@@H]3CO + O
viscosity [mPa·s], 101 kPa
Conditions | 298.15 K | 310.15 K
x1 = 7.87e-06 | 0.8909 | 0.6934
x1 = 8.39e-06 | 0.891 | 0.6935
x1 = 1.613e-05 | 0.8917 | 0.6944
x1 = 1.679e-05 | 0.8918 | 0.6945
x1 = 3.14e-05 | 0.8931 | 0.6962
x1 = 6.268e-05 | 0.8961 | 0.6998
x1 = 6.666e-05 | 0.8964 | 0.7003
x1 = 0.0001254 | 0.9019 | 0.7071
x1 = 0.0001309 | 0.9024 | 0.7078
x1 = 0.0001573 | 0.9049 | 0.7109
x1 = 0.0001654 | 0.9057 | 0.7118
x1 = 0.0001906 | 0.908 | 0.7148
x1 = 0.0002383 | 0.9125 | 0.7203

[Cl-].[NH4+] + O
viscosity [mPa·s]
Conditions | 298.15 K | 308.15 K | 313.15 K | 323.15 K
101.3 kPa, x1 = 0.00112 | – | 0.7299 | 0.6608 | 0.556
101.3 kPa, x1 = 0.002247 | – | 0.7289 | 0.6597 | 0.5555
101.3 kPa, x1 = 0.004484 | – | 0.7281 | 0.659 | 0.5551
101.3 kPa, x1 = 0.008927 | – | 0.7279 | 0.6586 | 0.5547
101.3 kPa, x1 = 0.0177 | – | 0.7315 | 0.661 | 0.557
101.33 kPa, x1 = 0.000905 | – | 0.7306 | 0.6614 | 0.5565
101.33 kPa, x1 = 0.002718 | – | 0.7295 | 0.6608 | 0.556
101.33 kPa, x1 = 0.00453 | – | 0.7288 | 0.6603 | 0.5556
101.33 kPa, x1 = 0.006344 | – | 0.7285 | 0.6598 | 0.5544
101.33 kPa, x1 = 0.008159 | – | 0.731 | 0.662 | 0.557
101.33 kPa, x1 = 0.1165 | 1.094 | – | – | –

CCNCC + O=C1CCCCC1
298.15 K, 101 kPa
Conditions | viscosity [mPa·s]
x2 = 0.076 | 0.296
x2 = 0.157 | 0.338
x2 = 0.2421 | 0.415
x2 = 0.3319 | 0.502
x2 = 0.427 | 0.639
x2 = 0.5278 | 0.79
x2 = 0.6349 | 0.97
x2 = 0.7488 | 1.224
x2 = 0.8702 | 1.54
